In the NIST ThermoML archive (doi:10.1016/j.fluid.2006.05.027):

Assay: excess molar enthalpy (molar enthalpy of mixing); xn = mol fraction of the nth substance listed
Conditions: Fluid (supercritical or subcritical phases)

C=C(C)C1CC=C(C)CC1 (stereo not given) [1-methyl-4-(1-methylethenyl)cyclohexene] + O=C=O
excess molar enthalpy [kcal/mol]
Conditions	308.15 K	313.15 K	323.15 K
7640 kPa, x2 = 0.105	–	–	-0.125
7640 kPa, x2 = 0.129	-0.105	–	-0.151
7640 kPa, x2 = 0.152	–	–	-0.188
7640 kPa, x2 = 0.175	–	–	-0.21
7640 kPa, x2 = 0.196	-0.174	–	-0.241
7640 kPa, x2 = 0.218	–	-0.233	–
7640 kPa, x2 = 0.238	-0.211	-0.258	-0.31
7640 kPa, x2 = 0.277	-0.245	-0.287	-0.361
7640 kPa, x2 = 0.314	-0.271	–	–
7640 kPa, x2 = 0.349	–	-0.379	–
7640 kPa, x2 = 0.382	-0.329	–	-0.527
7640 kPa, x2 = 0.413	-0.374	-0.476	-0.555
7640 kPa, x2 = 0.442	-0.391	–	-0.594
7640 kPa, x2 = 0.47	–	-0.553	-0.644
7640 kPa, x2 = 0.492	–	-0.577	–
7640 kPa, x2 = 0.497	-0.435	–	–
7640 kPa, x2 = 0.522	-0.466	–	-0.725
7640 kPa, x2 = 0.546	–	-0.668	–
7640 kPa, x2 = 0.569	–	-0.697	-0.779
7640 kPa, x2 = 0.591	-0.533	–	-0.799
7640 kPa, x2 = 0.596	–	-0.755	–
7640 kPa, x2 = 0.613	–	–	-0.831
7640 kPa, x2 = 0.633	–	–	-0.868
7640 kPa, x2 = 0.652	-0.58	-0.832	-0.87
7640 kPa, x2 = 0.671	–	–	-0.817
7640 kPa, x2 = 0.697	-0.633	–	-0.755
7640 kPa, x2 = 0.722	–	–	-0.694
7640 kPa, x2 = 0.738	–	-0.957	-0.652
7640 kPa, x2 = 0.753	–	–	-0.613
7640 kPa, x2 = 0.775	–	-1.01	-0.559
7640 kPa, x2 = 0.808	-0.749	-1.03	-0.472
7640 kPa, x2 = 0.839	–	–	-0.394
7640 kPa, x2 = 0.845	–	-1.07	–
7640 kPa, x2 = 0.868	–	-0.985	-0.326
7640 kPa, x2 = 0.878	-0.814	–	–
7640 kPa, x2 = 0.894	–	–	-0.257
7640 kPa, x2 = 0.918	–	-0.617	-0.191
7640 kPa, x2 = 0.962	–	–	-0.0853
7640 kPa, x2 = 0.97	-0.848	–	–
7640 kPa, x2 = 0.972	-0.842	–	–
7640 kPa, x2 = 0.985	–	-0.153	–
10000 kPa, x2 = 0.058	–	-0.00359	0.00287
10000 kPa, x2 = 0.111	0.0136	-0.00526	–
10000 kPa, x2 = 0.136	0.0134	-0.00741	–
10000 kPa, x2 = 0.16	–	–	-0.0208
10000 kPa, x2 = 0.207	0.0184	-0.0117	-0.0535
10000 kPa, x2 = 0.25	0.0182	-0.0151	-0.0853
10000 kPa, x2 = 0.29	–	-0.0182	-0.117
10000 kPa, x2 = 0.328	0.0194	–	–
10000 kPa, x2 = 0.358	–	–	-0.18
10000 kPa, x2 = 0.363	–	-0.0294	–
10000 kPa, x2 = 0.38	–	-0.0392	–
10000 kPa, x2 = 0.397	0.0146	–	–
10000 kPa, x2 = 0.428	0.011	-0.0416	-0.248
10000 kPa, x2 = 0.486	0.0043	–	-0.301
10000 kPa, x2 = 0.513	–	-0.065	–
10000 kPa, x2 = 0.526	–	-0.0743	–
10000 kPa, x2 = 0.538	–	–	-0.357
10000 kPa, x2 = 0.548	-0.00741	–	–
10000 kPa, x2 = 0.562	-0.00908	-0.082	-0.383
10000 kPa, x2 = 0.585	–	–	-0.402
10000 kPa, x2 = 0.627	–	-0.105	-0.437
10000 kPa, x2 = 0.666	-0.0354	-0.118	-0.473
10000 kPa, x2 = 0.71	-0.0492	-0.14	–
10000 kPa, x2 = 0.75	-0.0612	-0.15	-0.551
10000 kPa, x2 = 0.785	-0.0746	-0.173	–
10000 kPa, x2 = 0.801	–	–	-0.585
10000 kPa, x2 = 0.818	-0.0903	–	-0.604
10000 kPa, x2 = 0.875	-0.105	-0.198	-0.627
10000 kPa, x2 = 0.923	-0.105	-0.199	-0.612
10000 kPa, x2 = 0.94	-0.0985	–	–
10000 kPa, x2 = 0.964	-0.0803	-0.146	–
10000 kPa, x2 = 0.972	–	–	-0.41
10000 kPa, x2 = 0.983	-0.0495	–	–
10000 kPa, x2 = 0.986	–	-0.0834	-0.243
